Assay results published in the supplement of paper PMC8671470.

Tests used:
Details in all cases: 72 h
HL-60 [1] = experiment: cell viability (% survival relative to DMSO control); higher = less cytotoxic
Procedure, shortened: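 Four-parameter log-logistic fits in drc and PharmacoGx supplied area under the curve where it is given. Underlying viability came from CellTiter-Glo, normalised to DMSO and proteasome-inhibitor wells, with the proteasome inhibitor at 10 μM. HL-60 cells in RPMI 1640 plus 10% FBS had been rescreened against the full library at five tenfold concentrations of 1–10,000 nM, in duplicate on 384-well plates, with DMSO or 100 nM of one of three metabolic inhibitors, for 72 h at 37 °C, 5% CO2.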

NOMO-1 [2] = experiment: cell viability (% survival relative to DMSO control, bortezomib = 0%); higher = less cytotoxic
Procedure, shortened: (§1)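 After 72 h at 37 °C with 5% CO2, cell viability in 384-well plates was measured by CellTiter-Glo luminescence. The plates held compounds pre-printed at 1, 10, 100, 1000 or 10000 nM in duplicate, and cells from 10 AML and 5 CML lines seeded at densities titrated to linear growth. Percent survival is the duplicate mean, normalised to vehicle as 100% and a 10 µM positive control as 0%.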

HEL [3] = experiment: as above
Procedure, shortened: as §1

LAMA-84 [4] = experiment: as above
Procedure, shortened: as §1

BV-173 [5] = experiment: as above
Procedure, shortened: as §1

KU-812 [6] = experiment: as above
Procedure, shortened: as §1

K-562 [7] = experiment: as above
Procedure, shortened: as §1

ML-2 [8] = experiment: as above
Procedure, shortened: as §1

SHI-1 [9] = experiment: as above
Procedure, shortened: as §1

THP-1 [10] = experiment: as above
Procedure, shortened: as §1

HL-60 [11] = experiment: as above
Procedure, shortened: as §1

Mono-Mac-6 [12] = experiment: as above
Procedure, shortened: as §1

MV4-11 [13] = experiment: as above
Procedure, shortened: as §1

NOMO-1 [14] = system: NOMO-1
Procedure, shortened: (§2)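 Each of fifteen myeloid leukaemia cell lines was seeded in RPMI 1640 at a density titrated to its linear growth range. The cells were incubated for 72 h at 37 °C and 5% CO2 with compounds at five tenfold doses from 1 to 10,000 nM, in duplicate. After ATP luminescence was normalised to vehicle and to a positive control at 10 µM, four-parameter log-logistic curves were fitted. These curves gave the IC50.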

HEL [15] = system: HEL
Procedure, shortened: as §2

MOLM-13 = system: MOLM-13
Procedure, shortened: as §2

LAMA-84 [16] = system: LAMA-84
Procedure, shortened: as §2

BV-173 [17] = system: BV-173
Procedure, shortened: as §2

KU-812 [18] = system: KU-812
Procedure, shortened: as §2

K-562 [19] = system: K-562
Procedure, shortened: as §2

ML-2 [20] = system: ML-2
Procedure, shortened: as §2

KCL-22 = system: KCL-22
Procedure, shortened: as §2

SHI-1 [21] = system: SHI-1
Procedure, shortened: as §2

THP-1 [22] = system: THP-1
Procedure, shortened: as §2

HL-60 [23] = system: HL-60
Procedure, shortened: as §2

KG-1 = system: KG-1
Procedure, shortened: as §2

Mono-Mac-6 [24] = system: Mono-Mac-6
Procedure, shortened: as §2

MV4-11 [25] = system: MV4-11
Procedure, shortened: as §2

O=C(O)C(=O)CBr [3-bromopyruvic acid]
cell viability [%], HL-60 [1]
Details	0.001 µM	0.01 µM	0.1 µM	1 µM	10 µM
co-treatment: AZD3965 100 nM	99.1	101	99.2	98.3	95.8
co-treatment: DMSO vehicle	99.1	99.308	97.7	99.6	98
co-treatment: GSK2194069 100 nM	97.451	96.2	98.9	103	98.5
co-treatment: pictilisib 100 nM	112	93.8	92.943	97.2	96.5

cell viability [%]
Details	1 nM	10 nM	100 nM	1000 nM	10000 nM
BV-173 [5]	107	85.9	99	91.7	99.7
HEL [3]	90	83.1	92.2	96.2	112
HL-60 [11]	89.4	109	103	87.3	167
K-562 [7]	91.3	97.6	92.3	103	106
KU-812 [6]	88	88.9	99.8	97.6	105
LAMA-84 [4]	90.8	101	99.5	99.4	98
ML-2 [8]	91	78.4	102	102	99.4
MV4-11 [13]	93.7	94.7	88.4	101	99.8
Mono-Mac-6 [12]	96.3	93	93.2	105	94.3
NOMO-1 [2]	93.3	95	101	98.1	98
SHI-1 [9]	98.8	98.3	117	99.6	110
THP-1 [10]	106	85	105	93.4	107

Details	IC50 (cell viability) [µM]
BV-173 [17]	> 10
HEL [15]	> 10
HL-60 [23]	> 10
K-562 [19]	> 10
KCL-22	> 10
KG-1	> 10
KU-812 [18]	> 10
LAMA-84 [16]	> 10
ML-2 [20]	> 10
MOLM-13	> 10
MV4-11 [25]	> 10
Mono-Mac-6 [24]	> 10
NOMO-1 [14]	> 10
SHI-1 [21]	> 10
THP-1 [22]	> 10

NS(=O)(=O)c1ccc([N+](=O)[O-])cc1 [4-Nitrobenzenesulfonamide]
cell viability [%], HL-60 [1]
Details	0.001 µM	0.01 µM	0.1 µM	1 µM	10 µM
co-treatment: AZD3965 100 nM	91.2	100.8	103	97.7	90.6
co-treatment: DMSO vehicle	92.3	96.5	104	104	100
co-treatment: GSK2194069 100 nM	96.7	96.8	100.73	102	98.17
co-treatment: pictilisib 100 nM	105	98.6	101	99.4	91.7

cell viability [%]
Details	1 nM	10 nM	100 nM	1000 nM	10000 nM
BV-173 [5]	101	95	105	97.8	86.1
HEL [3]	105	98.7	105	99.6	96.3
HL-60 [11]	106	111	110	99.8	108
K-562 [7]	103	105	97.1	94.8	100
KU-812 [6]	102	95.7	105	98.1	93
LAMA-84 [4]	99.5	95.1	103	95.4	98.6
ML-2 [8]	103	111	97.3	102	89.6
MV4-11 [13]	102	93.4	115	94.3	114
Mono-Mac-6 [12]	101	97.3	98.1	111	89.8
NOMO-1 [2]	101	105	98.5	103	98.3
SHI-1 [9]	102	90.7	102	100	93.8
THP-1 [10]	111	101	100	104	90.7

Details	IC50 (cell viability) [µM]
BV-173 [17]	> 10
HEL [15]	> 10
HL-60 [23]	> 10
K-562 [19]	> 10
KCL-22	> 10
KG-1	> 10
KU-812 [18]	> 10
LAMA-84 [16]	> 10
ML-2 [20]	> 10
MOLM-13	> 10
MV4-11 [25]	> 10
Mono-Mac-6 [24]	> 10
NOMO-1 [14]	> 10
SHI-1 [21]	> 10
THP-1 [22]	> 10
